Test results: US9757375B2, “Compounds that inhibit human DNA ligases and methods of treating cancer” (University of Maryland, Baltimore, priority 2007, dated 2017)

Legend:
[1] = target: hLigIV/XRCC4 (Homo sapiens, UniProt P49917); assay: Radioactive gel-based DNA ligation assay; assay type: biochemical; design: concentration or dose not given beside the values
[2] = system: Human DNA ligases I, III and IV and T4 DNA ligase; assay: Step 3 of the ligation reaction: ligation of preadenylated nick by non-adenylated ligase; assay type: biochemical; settings: for Mechanism: ligation step inhibited (3rd step): Table 5A
Description: To analyze step 3 of the ligation reaction, an adenylated labeled version of the 18-mer was prepared as described (24). The DNA substrate containing a preadenylated nick (0.5 pmol) and hLigI (0.05 pmol), hLigIIIβ (0.05 pmol), hLigIV/XRCC4 (0.1 pmol), or T4 DNA ligase (0.05 pmol) were incubated in ligation buffer without ATP, either in the presence or absence of the ligase inhibitors (100 μmol/L). Reactions were stopped by the addition of an equal volume of gel loading dye (95% formamide, 0.05% bromophenol blue, and 0.05% xylene cyanol). After heating at 95° C. for 5 min, DNA was separated by denaturing polyacrylamide gel electrophoresis. Labeled oligonucleotides were detected and quantitated in the dried gel by phosphorImager analysis (Molecular Dynamics).
Since the final two steps of the ligation reaction involve interactions with DNA, we examined the effects of the ligase inhibitors on the second (FIG. 3B) (The labeled ligase-adenylate form of human DNA ligases I, III and IV and T4 DNA ligase were incubated with a linear DNA substrate containing a single non-ligatable nick in the absence or presence of compounds 67, 82 and 189 (100 μM). After separation by denaturing gel electrophoresis, the labeled DNA-AMP complex was detected by phosphorimaging (26)) and third steps (FIG. 3C) of the ligation reaction using established assays (25,26) (Non-adenylated human DNA ligases I, III and IV and T4 DNA ligase were incubated with labeled DNA-AMP in the absence or presence of compounds 67, 82 and 189 (100 μM). After separation by denaturing gel electrophoresis, labeled ligated DNA was detected by phosphorimaging (25)).

[3] = system: HeLa cell extract; assay: Cell extract assay of short patch base excision repair (incised AP site); assay type: biochemical, human; settings: 100 μmol/L (also 25 μM in the source), FIG. 4B
Description: Extracts were prepared from human cervical cancer HeLa cells as described previously (27, 31). For base excision repair (BER) assays, the extraction buffer contained 100 mmol/L of KCl, whereas for nonhomologous end-joining (NHEJ) assays, extraction buffer contained 400 mmol/L of KCl. Where indicated, DNA ligases were immunodepleted from the extracts as described (32) using protein A or G Sepharose beads (GE Healthcare) and anti-Lig1, anti-LigIII (GeneTex), or anti-LigIV (ABCAM) antibodies. Depletion was confirmed by immunoblotting.
A labeled 5′-flap substrate (0.1 pmol; (31)) was incubated with 20 μg of extract in the absence or presence of ligase inhibitors (100 μmol/L) at 25° C. for 5 min in ligation buffer (final volume, 50 μL). For short patch BER, a linear duplex containing a single uracil residue was preincised by treatment with uracil DNA glycosylase and APE1 (both from NEB) to generate a strand break with 3′ hydroxyl and 5′ deoxyribose phosphate termini. Reactions (50 μL) containing 0.3 pmol of the incised DNA substrate, 10 μCi of [α^32P]dTTP, and 20 μg of extract either in the absence or presence of ligase inhibitors (100 μmol/L) were incubated at 25° C. for 2 min in ligation buffer. After separation by denaturing polyacrylamide gel electrophoresis, labeled oligonucleotides were detected in the dried gel by phosphorImager analysis (Molecular Dynamics).
A natural AP site within a linear DNA molecule (FIG. 4B) is repaired primarily by short patch base excision repair that is completed by DNA ligase 111 (15). FIG. 4B, the linear DNA substrate with an incised AP site (0.3 pmol) was incubated with a cell extract (20 μg) and [a32P]dTTP in the absence (lane 1, Mock) or presence of 100 μmol/L of L189 (lane 2), L67 (lane 3), or L82 (lane 4). hLigI (lane 5, I-dp) and hLigIIIα (lane 6, III-dp) were immunodepleted from the cell extracts prior to incubation with the DNA substrate. […] After separation by denaturing gel electrophoresis, labeled fragments corresponding to a single nucleotide insertion and fully repaired product were detected by phosphorimaging (16). […]

[4] = system: HCT116 cells; assay: Colony forming (survival) assay; assay type: cell-based, human; settings: for potentiation of killing by ionizing radiation: HCT116, 2 gray
Description: (§1) For survival assays, cells were plated in 6 well plates and grown either in the absence or presence of ligase inhibitors. Where indicated, either MMS (0-50 μM) was added to the medium or the cells were irradiated in a Cs-137 irradiator (0-2.5 Gy). After two weeks, colonies were stained with crystal violet (Sigma) and then counted.
(§2) To confirm that the DNA ligase inhibitors directly kill cells and potentiate cell killing by DNA damaging agents, we performed colony forming assays.
(§3) Different concentrations of Compound 184 were added to asynchronous subconfluent populations of HCT116, MCF7 and MCF10A cells. Colonies were counted after two weeks. (FIG. 6A).
(§4) Different concentrations of Compound 151 were added to asynchronous subconfluent populations of HCT116 and MCF10A cells in the absence or presence of MMS (50 μM). Colonies were counted after two weeks. (FIG. 6B).
(§5) Different concentrations of Compound 189 were added to asynchronous subconfluent populations of HCT116 and MCF10A cells. After 1 hour, cultures were irradiated with 2 gray of ionizing radiation. Colonies were counted after two weeks. (FIG. 6C).
(§6) Different concentrations of Compound 67 were added to asynchronous subconfluent populations of HCT116, MCF7 and MCF10A cells. After 1 hour, cultures were irradiated with 2 gray of ionizing radiation. Different concentrations of Compound 67 were added to asynchronous subconfluent populations of HCT116 and MCF10A cells in the absence or presence of MMS (50 μM). Colonies were counted after two weeks. (FIG. 6D).

[5] = system: MCF10A cells; assay: Colony forming (survival) assay; assay type: cell-based, human; settings: colonies after two weeks; for effect on MMS cytotoxicity: MMS 50 μM
Description: as §1, §2, §3, §4, §5, §6

hLigIV/XRCC4, sequence (P49917 whole entry): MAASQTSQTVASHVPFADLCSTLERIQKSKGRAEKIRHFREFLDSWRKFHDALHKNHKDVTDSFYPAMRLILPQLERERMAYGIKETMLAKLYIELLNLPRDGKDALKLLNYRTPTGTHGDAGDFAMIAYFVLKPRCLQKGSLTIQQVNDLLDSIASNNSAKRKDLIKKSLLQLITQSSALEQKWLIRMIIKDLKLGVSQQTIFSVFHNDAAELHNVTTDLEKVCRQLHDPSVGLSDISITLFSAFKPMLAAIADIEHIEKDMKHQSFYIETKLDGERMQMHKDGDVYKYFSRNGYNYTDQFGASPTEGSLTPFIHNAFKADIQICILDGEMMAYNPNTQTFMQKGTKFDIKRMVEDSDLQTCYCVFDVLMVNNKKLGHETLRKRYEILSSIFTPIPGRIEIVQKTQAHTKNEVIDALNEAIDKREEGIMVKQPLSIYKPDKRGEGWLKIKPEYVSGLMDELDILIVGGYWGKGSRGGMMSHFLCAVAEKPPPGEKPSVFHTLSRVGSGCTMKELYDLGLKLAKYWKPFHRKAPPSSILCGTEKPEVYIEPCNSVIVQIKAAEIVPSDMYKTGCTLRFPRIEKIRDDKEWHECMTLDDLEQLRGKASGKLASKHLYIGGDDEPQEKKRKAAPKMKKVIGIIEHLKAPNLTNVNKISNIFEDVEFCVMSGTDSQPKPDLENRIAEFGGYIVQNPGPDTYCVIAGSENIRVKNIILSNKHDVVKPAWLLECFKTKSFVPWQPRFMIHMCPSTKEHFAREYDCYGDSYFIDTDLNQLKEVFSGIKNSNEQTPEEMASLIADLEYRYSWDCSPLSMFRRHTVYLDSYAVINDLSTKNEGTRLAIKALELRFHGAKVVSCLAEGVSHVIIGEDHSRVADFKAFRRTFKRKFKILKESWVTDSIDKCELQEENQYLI
hLigIV/XRCC4, sequence (Q13426 whole entry partner): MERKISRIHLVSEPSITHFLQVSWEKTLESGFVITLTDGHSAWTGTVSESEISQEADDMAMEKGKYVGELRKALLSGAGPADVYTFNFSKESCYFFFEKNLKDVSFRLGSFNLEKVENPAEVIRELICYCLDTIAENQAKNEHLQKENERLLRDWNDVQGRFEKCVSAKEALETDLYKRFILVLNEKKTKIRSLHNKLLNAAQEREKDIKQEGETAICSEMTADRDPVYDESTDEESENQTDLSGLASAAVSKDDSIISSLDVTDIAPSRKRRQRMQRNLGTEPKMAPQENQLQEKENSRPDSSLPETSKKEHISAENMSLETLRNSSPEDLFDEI

SMILES | % activity Inhibition hLigIV gel [1] | Mechanism: ligation step inhibited (3rd step) [2] | repair of the natural AP site (short patch base excision repair) [3] | effect on MMS cytotoxicity [5] | other results
O=C(O)CSc1cc(Cl)c2nonc2c1[N+](=O)[O-] [Compound 64] | 66% | – | – | – | –
Cc1c(Br)cc(NCC(=O)N/N=C\c2cc([N+](=O)[O-])ccc2O)cc1Br [Compound 67] | – | 3rd step | reduce repair of the natural AP site | no significant effect | potentiation of killing by ionizing radiation ([4]; colonies after two weeks): potentiates; effect on ionizing radiation-induced cytotoxicity ([5]; 2 gray): no significant effect
O=c1[nH]ncc(N/N=C\c2ccc(O)c([N+](=O)[O-])c2)c1Cl [Compound 82] | – | 3rd step | has no effect | – | inhibition of step 3 of the ligation reaction ([2]; 100 μM, FIG. 3C): inhibit step 3
O=C(Cn1cnc([N+](=O)[O-])n1)N/N=C/c1ccc(O)cc1O [Compound 151] | – | – | – | no significant effect | potentiation of killing by MMS ([4]; HCT116, MMS 50 μM, colonies after two weeks): markedly potentiates
CS(=O)(=O)NNC(=O)C(=O)NNc1ccccc1 [Compound 184] | – | – | – | – | cell killing (colony formation) ([4]; HCT116, compound alone, compared with MCF10A, FIG. 6A): more effective at killing; cell killing (colony formation) ([5]; compound alone, FIG. 6A): kills
Nc1nc(S)nc(O)c1/N=C/c1ccccc1 [Compound 189] | 80% | 3rd step | reduce repair of the natural AP site | no significant effect | potentiation of killing by ionizing radiation ([4]; colonies after two weeks): markedly potentiates
Cc1oc(C(=O)O)cc1CSCc1cc(C(=O)O)c(C)o1 [Compound 197] | 100% | 3rd step | – | – | –
